Among the data in ChEMBL document CHEMBL3244078, “Synthesis and antihypertensive activity of novel 3-hydrazino-5-phenyl-1,2,4-triazines” (J Med Chem, 1979) are Activity and LD50 values, retold here.

Each structure is given as a SMILES string. Active and inactive are the calls of the source. No cut-off for these calls is given here. Some results are limits rather than exact numbers.

Series [1] deals with Rattus norvegicus. Kind of series: Antihypertensive activity in spontaneously hypertensive rat assessed as drop in mean systolic blood pressure at 100 mg/kg, po followed by second dosing at 24 hrs measured after 28 hrs by tail cuff method relative to vehicle-treated control. Type of series: functional.
For series [2], the system named is Rattus norvegicus. Kind of series: Antihypertensive activity in spontaneously hypertensive rat assessed as drop in mean systolic blood pressure at 100 mg/kg, po after 24 hrs by tail cuff method relative to vehicle-treated control. Type of series: functional.
In series [3] the test system is Rattus norvegicus. Kind of series: Antihypertensive activity in spontaneously hypertensive rat assessed as drop in mean systolic blood pressure at 100 mg/kg, po followed by second dosing at 24 hrs measured after 48 hrs by tail cuff method relative to vehicle-treated control. Type of series: functional.
Series [4] in a line: Toxicity in ip dosed CF-1 mouse after 48 hrs. Particulars: in vivo.
In series [5] the test system is Rattus norvegicus. Kind of series: Antihypertensive activity in spontaneously hypertensive rat assessed as drop in mean systolic blood pressure at 100 mg/kg, po after 4 hrs by tail cuff method relative to vehicle-treated control. Type of series: functional.

As for `Cc1ccc(-c2cnnc(NNC(=O)C(F)(F)F)n2)cc1`, the result with Rattus norvegicus [1] (Artery), with Rattus norvegicus [2] (Artery), with Rattus norvegicus [3] (Artery) and with Rattus norvegicus [5] (Artery) was inactive. Besides, the LD50 (commonly the dose at which mortality reaches 50%) at 48 h in series [4] was greater than 300 mg/kg.
As for `CC(=O)NNc1nncc(-c2ccc(Cl)c(Cl)c2)n1`, the result in the series on Rattus norvegicus [1] (Artery), with Rattus norvegicus [2] (Artery), in the series on Rattus norvegicus [3] (Artery) and in the series on Rattus norvegicus [5] (Artery) was inactive. This molecule came in with an LD50 at 48 h in series [4] of 237 mg/kg.
With `CNNc1nncc(-c2ccc(Cl)cc2)n1`, the Activity in the series with Rattus norvegicus [1] stood at 39 mmHg; in the series on Rattus norvegicus [2], 12 mmHg; with Rattus norvegicus [3], 53 mmHg; with Rattus norvegicus [5] it was 0 mmHg. Also, the median lethal dose (LD50) at 48 h in series [4] amounted to 316 mg/kg.
On the same counts, the results for `O=C(NNc1nncc(-c2ccccc2)n1)C(F)(F)F` are 70 mmHg, 29 mmHg, 88 mmHg, 51 mmHg and 178 mg/kg.
In the case of `Br.CC(N)C(=O)NNc1nncc(-c2cccc(Cl)c2)n1.O` (stereo unspecified), the result with Rattus norvegicus [1] (Artery), in the series with Rattus norvegicus [2] (Artery), with Rattus norvegicus [3] (Artery) and in the series with Rattus norvegicus [5] (Artery) was inactive. This molecule came in with an LD50 at 48 h in series [4] of 178 mg/kg.
Molecule `Br.CC(C)C(N)C(=O)NNc1nncc(-c2ccc(Cl)cc2)n1.O` (stereo unspecified) had an LD50 at 48 h in series [4] of 178 mg/kg.
`Cc1ccc(-c2cnnc(NNC(=O)C34CC5CC(CC(C5)C3)C4)n2)cc1.Cl`: the Activity with Rattus norvegicus [1] turned out to be 24 mmHg; with Rattus norvegicus [2], 0 mmHg; in the series on Rattus norvegicus [3], 30 mmHg; with Rattus norvegicus [5], 32 mmHg. The molecule also gave an LD50 at 48 h in series [4] of 216 mg/kg.
Take `O=C(NNc1nncc(-c2ccccc2)n1)c1ccccc1`: the result in the series with Rattus norvegicus [1] (Artery), in the series with Rattus norvegicus [2] (Artery), in the series with Rattus norvegicus [3] (Artery) and in the series on Rattus norvegicus [5] (Artery) was inactive. This molecule came in with an LD50 at 48 h in series [4] greater than 300 mg/kg.
Take `CNNc1nncc(-c2cccc(Cl)c2)n1`: the Activity with Rattus norvegicus [1] was 63 mmHg; with Rattus norvegicus [2] it was 35 mmHg; with Rattus norvegicus [3], 51 mmHg; in the series with Rattus norvegicus [5], 28 mmHg. Besides, the LD50 at 48 h in series [4] was 237 mg/kg.
Regarding `CCCCCC(=O)NNc1nncc(-c2ccccc2)n1.Cl`, the Activity stood at 81 mmHg in the series with Rattus norvegicus [1], 53 mmHg with Rattus norvegicus [2], 68 mmHg in the series on Rattus norvegicus [3] and 53 mmHg in the series with Rattus norvegicus [5]. In series [4], the LD50 at 48 h was determined as 178 mg/kg.
For `O=C(NNc1nncc(-c2ccc(Cl)cc2)n1)C(F)(F)F`, the Activity in the series with Rattus norvegicus [1] worked out at 92 mmHg; with Rattus norvegicus [2] it was 46 mmHg; in the series with Rattus norvegicus [3], 74 mmHg; with Rattus norvegicus [5] it was 30 mmHg. For the same molecule, the LD50 at 48 h in series [4] is 237 mg/kg.
On to `Cc1ccc(-c2cnnc(NNC(=O)Cc3ccccc3)n2)cc1`, for which the result with Rattus norvegicus [1] (Artery), with Rattus norvegicus [2] (Artery), in the series on Rattus norvegicus [3] (Artery) and in the series on Rattus norvegicus [5] (Artery) was inactive. The LD50 at 48 h in series [4] was determined as 237 mg/kg.
With `O=C(CCCl)NNc1nncc(-c2ccc(Cl)cc2)n1`, the result in the series on Rattus norvegicus [1] (Artery), in the series on Rattus norvegicus [2] (Artery), in the series with Rattus norvegicus [3] (Artery) and with Rattus norvegicus [5] (Artery) was inactive. The LD50 at 48 h in series [4] stood at 237 mg/kg.
For `O=C(NNc1nncc(-c2ccccc2)n1)C1CCCCC1`, the Activity in the series on Rattus norvegicus [1] was found to be 76 mmHg; with Rattus norvegicus [2] it was 51 mmHg; in the series with Rattus norvegicus [3], 79 mmHg; with Rattus norvegicus [5], 24 mmHg. Besides, in series [4], the LD50 at 48 h stood at 237 mg/kg.
On the same counts, the results for `Br.CC(N)C(=O)NNc1nncc(-c2ccc(Cl)cc2)n1.O` (stereo unspecified) are 91 mmHg, 58 mmHg, 103 mmHg, 44 mmHg and 237 mg/kg.
On the same counts, the results for `Cc1ccc(-c2cnnc(NN)n2)cc1.O` are 75 mmHg, 28 mmHg, 38 mmHg, 62 mmHg and 224 mg/kg.
On the same counts, the results for `O=C(CCCCl)NNc1nncc(-c2ccc(Cl)cc2)n1` are 48 mmHg, 25 mmHg, 73 mmHg, 0 mmHg and 237 mg/kg.
As to `CC(=O)NNc1nncc(-c2ccccc2)n1`, the Activity in the series with Rattus norvegicus [1] came to 106 mmHg; in the series with Rattus norvegicus [2], 94 mmHg; in the series on Rattus norvegicus [3], 104 mmHg; in the series on Rattus norvegicus [5] it was 40 mmHg. In series [4], this molecule displayed an LD50 at 48 h of 178 mg/kg.
On the same counts, the results for `Br.NC(Cc1ccccc1)C(=O)NNc1nncc(-c2ccccc2)n1.O` (stereo unspecified) are 75 mmHg, 38 mmHg, 82 mmHg, 26 mmHg and 178 mg/kg.
On to `CNNc1nncc(-c2ccccc2)n1`, for which the Activity came to 56 mmHg with Rattus norvegicus [1], 49 mmHg in the series on Rattus norvegicus [2], 92 mmHg in the series on Rattus norvegicus [3] and 0 mmHg in the series with Rattus norvegicus [5]. This molecule also showed an LD50 at 48 h in series [4] of 178 mg/kg.
Consider `Cl.O=C(Cc1ccccc1)NNc1nncc(-c2ccccc2)n1`, for which the outcome in the series with Rattus norvegicus [1] (Artery), in the series on Rattus norvegicus [2] (Artery), in the series with Rattus norvegicus [3] (Artery) and with Rattus norvegicus [5] (Artery) was inactive. In addition, the LD50 at 48 h in series [4] was 237 mg/kg.
For the molecule `CNNc1nncc(-c2ccc(C)cc2)n1`, the result with Rattus norvegicus [1] (Artery), in the series on Rattus norvegicus [2] (Artery), in the series with Rattus norvegicus [3] (Artery) and with Rattus norvegicus [5] (Artery) was inactive. The same molecule displayed an LD50 at 48 h in series [4] of 316 mg/kg.
Consider `NNc1nncc(-c2cccc(C(F)(F)F)c2)n1`, for which the Activity with Rattus norvegicus [1] stood at 48 mmHg; with Rattus norvegicus [2] it was 0 mmHg; with Rattus norvegicus [3], 40 mmHg; in the series on Rattus norvegicus [5] it was 26 mmHg. The same molecule registered an LD50 at 48 h in series [4] of 316 mg/kg.
In the same order, the values of `O=C(NNc1nncc(-c2ccccc2)n1)C(Cl)Cl` are 106 mmHg, 54 mmHg, 80 mmHg, 33 mmHg and 178 mg/kg.
In the same order, the values of `O=C(NNc1nncc(-c2cccc(Cl)c2)n1)C(F)(F)F` are 64 mmHg, 0 mmHg, 59 mmHg, 0 mmHg and 237 mg/kg.
For the molecule `NNc1nncc(-c2ccc(Cl)cc2)n1`, the Activity is 90 mmHg with Rattus norvegicus [1], 61 mmHg in the series on Rattus norvegicus [2], 87 mmHg in the series on Rattus norvegicus [3] and 52 mmHg in the series on Rattus norvegicus [5]. The median lethal dose (LD50) at 48 h in series [4] worked out at 237 mg/kg.
On the same counts, the results for `COc1ccc(-c2cnnc(NN)n2)cc1` are 38 mmHg, 26 mmHg, 22 mmHg, 48 mmHg and 56 mg/kg.
On to `NNc1nncc(-c2ccc(Cl)c(Cl)c2)n1`, for which the outcome in the series on Rattus norvegicus [1] (Artery), in the series with Rattus norvegicus [2] (Artery), in the series with Rattus norvegicus [3] (Artery) and in the series with Rattus norvegicus [5] (Artery) was inactive. In series [4], this molecule gave an LD50 at 48 h greater than 300 mg/kg.
As for `CC(C)C(=O)NNc1nncc(-c2ccccc2)n1.Cl`, the Activity with Rattus norvegicus [1] turned out to be 98 mmHg; with Rattus norvegicus [2], 46 mmHg; in the series on Rattus norvegicus [3], 83 mmHg; in the series on Rattus norvegicus [5], 44 mmHg. This molecule also registered a 50% lethal dose (LD50) at 48 h in series [4] of 178 mg/kg.
On to `CC(=O)NNc1nncc(-c2ccc(C)cc2)n1.O`, for which the result in the series with Rattus norvegicus [1] (Artery), with Rattus norvegicus [2] (Artery), with Rattus norvegicus [3] (Artery) and in the series on Rattus norvegicus [5] (Artery) was inactive. Besides, in series [4], the LD50 at 48 h is greater than 300 mg/kg.
Regarding `Cl.O=C(NNc1nncc(-c2ccc(Cl)cc2)n1)C(Cl)(Cl)Cl`, the outcome in the series with Rattus norvegicus [1] (Artery), with Rattus norvegicus [2] (Artery), in the series on Rattus norvegicus [3] (Artery) and in the series with Rattus norvegicus [5] (Artery) was inactive. Besides, the LD50 at 48 h in series [4] was 237 mg/kg.
In the case of `CCC(=O)NNc1nncc(-c2ccc(Cl)cc2)n1`, the Activity in the series with Rattus norvegicus [1] amounted to 107 mmHg; in the series on Rattus norvegicus [2] it was 79 mmHg; with Rattus norvegicus [3] it was 111 mmHg; in the series with Rattus norvegicus [5] it was 47 mmHg. For the same molecule, the LD50 at 48 h in series [4] stood at 237 mg/kg.
In the same order, the values of `O=C(CCl)NNc1nncc(-c2ccccc2)n1` are 101 mmHg, 74 mmHg, 55 mmHg, 63 mmHg and 100 mg/kg.
In the case of `NNc1nncc(-c2cccc(Cl)c2)n1`, the Activity was 55 mmHg in the series on Rattus norvegicus [1], 0 mmHg in the series with Rattus norvegicus [2], 51 mmHg in the series on Rattus norvegicus [3] and 0 mmHg in the series on Rattus norvegicus [5]. For the same molecule, the 50% lethal dose (LD50) at 48 h in series [4] was 237 mg/kg.
As to `COc1ccc(-c2cnnc(NNC(C)=O)n2)cc1`, the result with Rattus norvegicus [1] (Artery), in the series on Rattus norvegicus [2] (Artery), in the series on Rattus norvegicus [3] (Artery) and with Rattus norvegicus [5] (Artery) was inactive. Besides, in series [4], the LD50 at 48 h stood at 237 mg/kg.
